One data set concerns Tagia sp. The following applies: chronic/long-term; growth.
For a further data set, the system named is Folsomia candida. The following applies: chronic/long-term; duration: 28 days; reproduction.
A further data set relates to Aphidius rhopalosiphi. The data set can be described thus: LR50; higher = less toxic. The following applies: acute; duration: 48 hours; mortality.
A further data set deals with Typhlodromus pyri. The data set can be described thus: LR50; higher = less toxic. The following applies: chronic/long-term; duration: 14 days; mortality.
The subject of a further data set is Poephila guttata. The following applies: acute; oral; unspecified; mortality.
The subject of the next data set is Anas platyrhynchos. The following applies: chronic/long-term.
The subject of another data set is Apis mellifera. The following applies: acute, mortality.
The conditions of data set [1]: chronic.
The test system of the next data set is Cyprinodon variegatus. The following applies: acute; duration: 96 hours; mortality.
For a further data set, the system named is Xenopus laevis. The following applies: chronic/long-term; duration: 21 days; growth.
In the next data set the test system is Pimephales promelas. The following applies: chronic/long-term; duration: 35 days; reproduction.

Two compounds from EPA's ToxValDB 9.5 (doi:10.2903/j.efsa.2016.4610) can be followed below.

Converted amounts (≈) assume the structure as drawn.

For the compound `CC(=N)N(C)Cc1ccc(Cl)nc1` [Acetamiprid metabolite (IM-1-5)], the NOEC amounted to 62.5 mg/kg in the data set on Tagia sp. and 12.5 mg/kg in the data set with Folsomia candida.

The term NOAEL denotes the highest tested level that showed no adverse finding. A word on the LC50: it is the concentration lethal to half of the exposed cells or organisms. `CC(=NC#N)N(C)Cc1ccc(Cl)nc1` [Acetamiprid]: the LR50 with Aphidius rhopalosiphi was found to be 2 g/ha; in the data set with Typhlodromus pyri, 29.7 g/ha. The LD50 turned out to be 5.7 mg/kg-day with Poephila guttata; 146 mg/kg-day in the data set on Rattus norvegicus (acute, oral, mortality); 9.26 µg/piece with Apis mellifera (dermal); 8.85 µg/piece in the data set on Apis mellifera (oral, unspecified). For the same compound, the no observed adverse effect level (NOAEL) in the data set with Anas platyrhynchos was found to be 9.5 mg/kg-day; in the data set with Rattus norvegicus (developmental, development), 2.5 mg/kg-day. Further, the NOEC in data set [1] was found to be 0.0011 mg/L; with Folsomia candida, 0.27 mg/kg; with Xenopus laevis, 2.6 mg/L; with Pimephales promelas, 9.4 mg/L. Also, the LC50 with Cyprinodon variegatus worked out at 100 µg/mL (≈ 449 µM).
